Tests used:
[1] = system: Human cervical cancer cells (HeLa S3); assay: Cell growth inhibitory effect, WST-8 method; format: cell-based; conditions: 72 h, HeLa S3, three days incubation
Text: Method for Judging the Pharmaceutical Effect Using cells
Fetal calf serum (FCS) was purchased from Moregate Biotech, and DMEM medium was purchased from Invitrogen Corp. WST-8 was purchased from Kishida Chemical Co., Ltd.
(§1) Human cervical cancer cells (HeLa S3) were obtained from the American Type Culture Collection (ATCC).
(§2) c) Method of Judging the Effect
Cells were suspended in a DMEM medium containing 10% FCS, and the cell suspension was dispensed to a 96-well plastic plate at a rate of 750 cells/l 00 microliters per well. The plate was incubated overnight in 5% CO2-95% air at 37° C. A drug was subjected to graded dilution in dimethylsulfoxide and further diluted with a DMEM medium containing 10% FCS. Then, the dilution was dispensed to the plate on which cells had been disseminated, at a rate of 100 microliters per well. The plate was incubated for further three days in 5% CO2-95% air at 37° C. Cell growth after incubation was measured by the WST-8 method (H. Tominaga, et al., Anal. Commun., 36, 47-50 (1999)). Here, the WST-8 method refers to a method in which 20 microliters of a WST-8 reagent solution is added to each well, incubation is conducted at 37° C. for 45 minutes, the plate is stirred, and the amount of formazan produced is measured by a calorimetric method to determine the inhibitory rate of the drug. The concentration for 50% growth inhibition (EC50, IM) of the compound was determined.

Aurora B = biological target: T1, Aurora B (Homo sapiens, UniProt Q96GD4); assay: Aurora B inhibitory action (33P-ATP kinase assay, Kemptide substrate); format: biochemical; conditions: 100 μM ATP, 30° C., 20 minutes
T1 construct: histidine tag (N); made in house; host or cells: Escherichia coli BL21-CodonPlus(DE3)-RIL
T1 sequence (Q96GD4 whole entry): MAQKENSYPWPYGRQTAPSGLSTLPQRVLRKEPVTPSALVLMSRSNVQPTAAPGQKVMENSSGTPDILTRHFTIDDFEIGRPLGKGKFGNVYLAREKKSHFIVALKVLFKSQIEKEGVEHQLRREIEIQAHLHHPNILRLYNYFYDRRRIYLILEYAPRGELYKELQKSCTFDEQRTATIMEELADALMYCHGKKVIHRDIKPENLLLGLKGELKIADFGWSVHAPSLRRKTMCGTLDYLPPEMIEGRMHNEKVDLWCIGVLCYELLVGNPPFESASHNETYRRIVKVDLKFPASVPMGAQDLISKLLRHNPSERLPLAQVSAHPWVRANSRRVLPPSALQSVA
How it was run: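 His-tagged Aurora B expressed in E. coli, reacted with 100 μM Kemptide, 100 μM ATP plus [γ-33P]ATP in Tris pH 7.4, 15 mM Mg acetate, 0.2 mM EDTA, 30 °C, 20 min. Peptide captured on P81 filters for scintillation counting; compounds added from DMSO dilutions.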

Aurora A = biological target: T2, Aurora A (Homo sapiens, UniProt O14965); assay: Aurora A inhibitory action (33P-ATP kinase assay, Kemptide substrate); format: biochemical; conditions: 20 μM ATP, 30° C., 20 minutes
T2 construct: histidine tag (N); made in house; host or cells: Escherichia coli BL21-CodonPlus(DE3)-RIL
T2 sequence (O14965 1-403): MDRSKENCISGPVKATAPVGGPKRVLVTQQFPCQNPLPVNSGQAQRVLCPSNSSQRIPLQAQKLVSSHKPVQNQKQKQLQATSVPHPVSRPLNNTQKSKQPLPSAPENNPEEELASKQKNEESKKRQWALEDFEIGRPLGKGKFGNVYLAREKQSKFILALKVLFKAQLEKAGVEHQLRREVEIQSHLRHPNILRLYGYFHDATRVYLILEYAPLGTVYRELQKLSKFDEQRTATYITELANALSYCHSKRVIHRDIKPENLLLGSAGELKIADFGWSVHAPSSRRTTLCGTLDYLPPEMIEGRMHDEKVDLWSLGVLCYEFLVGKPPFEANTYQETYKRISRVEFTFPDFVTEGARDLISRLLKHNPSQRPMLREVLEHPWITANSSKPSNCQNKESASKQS
How it was run: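 His-tagged Aurora A expressed in E. coli, Ni-purified; reaction in 50 mM Tris pH 7.4, 15 mM Mg acetate, 0.2 mM EDTA with 100 μM Kemptide, 20 μM ATP plus [γ-33P]ATP, 20 min at 30 °C. Phosphopeptide captured on P81 filters and counted by scintillation; DMSO control.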

[2] = system: Human cervical cancer cells (HeLa S3); assay: Effect by combined use of drugs in cells (with paclitaxel), WST-8 method; format: cell-based; conditions: three days
Text: Method for Judging the Effect by Combined Use of Drugs in Cells
Fetal calf serum (FCS) was purchased from Moregate Biotech, DMEM medium from Invitrogen Corp., paclitaxel (tradename: Taxol) from Sigma-Aldrich, Inc., and WST-8 from Kishida Chemical Co., Ltd.
as §1, §2
Cells were suspended in a DMEM medium containing 10% FCS, and the cell suspension was dispensed to two 96-well plastic plates at a rate of 750 cells/100 microliters per well. The plates were incubated overnight in 5% CO2-95% air at 37° C. A drug was subjected to graded dilution in dimethylsulfoxide and flurther diluted with DMSO or with a DMEM medium containing 10% FCS and also containing 2 nM paclitaxel. Then, the dilutions were each dispensed to one of the plates on which cells had been disseminated, at a rate of 100 microliters per well. The final concentration of paclitaxel at this stage was 1 nM. Also, the concentrations in the case of sole administration of the compound according to the invention were 0.03, 0.1, 0.3, 1 and 3 μM. The plates were incubated for further three days in 5% CO2-95% air at 37° C. Cell growth after incubation was measured by the WST-8 method (H. Tominaga, et al., Anal. Commun., 36, 47-50 (1999)). Here, the WST-8 method refers to a method in which 20 microliters of a WST-8 reagent solution is added to each well, incubation is conducted at 37° C. for 45 minutes, the plate is stirred, and the amount of formazan produced is measured by a colorimetric method to determine the inhibitory rate of the drug. The growth inhibitory effects of paclitaxel and of the compound according to the invention were determined, with the value obtained in sole treatment of DMSO being defined as 0%.

SMILES	IC50 [1] [nM]	IC50 (Aurora B) [nM]	IC50 (Aurora A) [nM]	Cell growth inhibitory effect by combined administration of paclitaxel and the compound of Example (%) ([2]; HeLa S3, compound 0.3 μM + paclitaxel 1 nM)	inhibition at 0.3 µM ([2]; Homo sapiens, HeLa S3, 72 h, HeLa S3, compound 0.3 μM alone, read-out: Cell growth inhibitory effect by sole administration of the compound of Example (%)) [%]	melting point [°C]	Cell growth inhibitory effect by combined administration of paclitaxel and the compound of Example (%) ([2]; HeLa S3, compound 0.1 μM + paclitaxel 1 nM)	inhibition at 0.1 µM ([2]; Homo sapiens, HeLa S3, 72 h, HeLa S3, compound 0.1 μM alone, read-out: Cell growth inhibitory effect by sole administration of the compound of Example (%)) [%]	Cell growth inhibitory effect by combined administration of paclitaxel and the compound of Example (%) ([2]; HeLa S3, compound 0.03 μM + paclitaxel 1 nM)	inhibition at 0.03 µM ([2]; Homo sapiens, HeLa S3, 72 h, HeLa S3, compound 0.03 μM alone, read-out: Cell growth inhibitory effect by sole administration of the compound of Example (%)) [%]	Cell growth inhibitory effect by combined administration of paclitaxel and the compound of Example (%) ([2]; HeLa S3, compound 1.0 μM + paclitaxel 1 nM)	inhibition at 1 µM ([2]; Homo sapiens, HeLa S3, 72 h, HeLa S3, compound 1.0 μM alone, read-out: Cell growth inhibitory effect by sole administration of the compound of Example (%)) [%]
O=C(c1cccc(C(F)(F)F)c1F)N1CCN(Cc2cncc(Nc3cc[nH]n3)n2)CC1 [Example 44, 6-((4-(2-fluoro-3-(trifluoromethyl)benzoyl)piperazin-1-yl)methyl)-N-1H-pyrazol-3-ylpyrazin-2-amine]	2400	1100	0.89	86.5	7.1	160 to 163	–	–	–	–	–	–
Cn1nnnc1-c1cc(CN2CCN(C(=O)c3cccc(Cl)c3F)CC2)nc(Nc2nccs2)c1 [Example 106, 6-((4-(3-chloro-2-fluorobenzoyl)piperazin-1-yl)methyl)-4-(1-methyl-1H-tetrazol-5-yl)-N-thiazol-2-ylpyridin-2-amine]	400	400	0.88	–	–	–	76.7	6.1	–	–	–	–
Cn1nnc(-c2cc(CN3CCN(C(=O)c4cccc(Cl)c4F)CC3)nc(Nc3nccs3)c2)n1 [Example 107, 6-((4-(3-chloro-2-fluorobenzoyl)piperazin-1-yl)methyl)-4-(2-methyl-2H-tetrazol-5-yl)-N-thiazol-2-ylpyridin-2-amine]	210	190	0.32	–	–	–	–	–	74.1	11.5	–	–
O=C(c1cccc(Cl)c1F)N1CCN(Cc2cc(-c3ncn[nH]3)cc(Nc3nccs3)n2)CC1 [Example 108, 6-((4-(3-chloro-2-fluorobenzoyl)piperazin-1-yl)methyl)-N-thiazol-2-yl-4-(1H-1,2,4-triazol-5-yl)pyridin-2-amine]	1200	800	0.59	–	–	–	–	–	–	–	86.4	17.2
